Results as given in PubChem BioAssay AID1963844 (Molecular Pharmacology Branch, DTP, NCI, 2024).
“And” between values parts separate entries of the source, which are not always exact repeats. Equal values may be shown once.

Test system: 422866-222-R5-J1-PDC complex spheroid viability
Experiment: Anticancer human tumor 422866-222-R5-J1-PDC patient-derived pancreatic adenocarcinoma cell line growth inhibition [POLQ]
Conditions: for viability, T/C: stronger effect = lower value
Method: Multicellular complex tumor spheroid response to Polymerase (POL) inhibitors (novobiocin, ART-558, RP6685) in combination with a variety of drugs and investigational agents in selected tumor cell lines
The POL inhibitors (novobiocin, ART-558, and RP6685) were evaluated both individually and in combination with standard of care and investigational anticancer small molecules within a complex spheroid model of solid tumors. . Complex spheroids include a stromal component modeled by human endothelial cells (HUVEC) and fibroblasts modeled by human mesenchymal stem cells (MSCs). The concentration ranges selected for each drug and investigational agent were based upon clinically achievable concentrations if the clinical Cmax of the agent was known.
Compounds. The drugs and investigational agents: novobiocin (NSC847541), ART-558 (NSC835418), RP-6685 (NSC848927), peposertib (NSC802822), ceralasertib (NSC780249), elimusertib (NSC800525), camonsertib (NSC841442), AZD-1390 (NSC803789), olaparib (NSC753686), talazoparib (NSC767125), rucaparib (NSC756644), sotorasib (NSC818433), MRTX-1133 (NSC836407), SN-38 (NSC673596), topotecan (NSC609699), epotoside (NSC141540), doxorubicin (NSC123127), gemcitabine (NSC613327), 5-fluorouracil (NSC19893), paclitaxel (NSC125973), vemurafenib (NSC761431), MSA-2 (NSC828583), SN-011 (NSC837082), adavosertib (NSC754352), prexasertib (NSC758257), carboplatin (NSC241240) and oxaliplatin (NSC266046), were obtained from the National Cancer Institute (NCI) Developmental Therapeutics Program Chemical Repository (21). The FDA-approved anticancer drug set is available from the Developmental Therapeutics Program at https://dtp.cancer.gov/organization/dscb/obtaining/. […] The stock solutions were prepared in dimethyl sulfoxide (DMSO, Sigma-Aldrich, St. Louis, MO, cat. D2650), except for the platinum compounds which were prepared in saline (Quality Biological, Gaithersburg, MD, cat. 114-055-101), at 800-fold the tested concentration and stored at -70 degrees C prior to their use. All drugs and investigational agents were tested over a range starting from a high concentration at or near the clinical Cmax and decreasing in half-log increments. If the clinical Cmax for an agent had not been determined, the highest concentration tested was 10 microM, except for SN-38, which was tested at a high concentration of 1 microM.
Cell Culture. All cells were maintained in an incubator at 37 degrees C and 5% CO2 with 95% humidity. The PDC lines were cultured according to standard operating procedures established by the NCI PDMR (https://pdmr.cancer.gov). Table 3 of the manuscript, lists the cell lines along with the number of the three cell types plated to form the mct-spheroids and media for tumor cell growth. After thawing, all PDC lines, except 997537-175-T-J1-PDC and 415267-285-R-J2-PDC, were cultured in Matrigel-coated flasks prepared with a working solution of 1X Ham's F-12 nutrient mix, without supplementation (Thermo Fisher Scientific, cat. 11765054), 100 U/mL penicillin-streptomycin (Thermo Fisher Scientific, cat. 15140122), and 2.5% Matrigel (Corning Inc., Corning, NY, cat. 354248) for the first three passages. The two PDC lines 997537-175-T-J1-PDC and 415267-285-R-J2-PDC were cultured on uncoated flasks. The 857933-349-R-J2-PDC line was cultured in 6C/Colon 1B media containing advanced DMEM/F-12 (Thermo Fisher Scientific, cat. 12634028), 10 mM HEPES (Thermo Fisher Scientific, cat. 15630080), 1X GlutaMAX supplement (Thermo Fisher Scientific, cat. 35050061), 0.1 mg/mL primocin (InvivoGen, San Diego, CA, cat. ant-pm-2), 10% defined fetal bovine serum, heat inactivated (HyClone Laboratories Inc., Logan, UT, cat. SH30070.03HI), 50% L-WRN conditioned media (ATCC, cat. CRL-3276), 1.25 mM N-Acetyl-L-cysteine (Sigma-Aldrich, cat. A9165), 10 mM nicotinamide (Sigma-Aldrich, cat. N0636), 1X B-27 supplement (Thermo Fisher Scientific, cat. 17504044), 1X N-2 supplement (Thermo Fisher Scientific, cat. […]
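Further: spheroids exposed to compounds for one week before readout.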
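Wherever viability, T/C is given: percent of DMSO vehicle wells luminescence so 100% = untreated viability.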

SMILES: CCc1cc2c(N3CCc4c(cc(Cn5ccnc5)cc4-c4cn(C)nc4C(F)(F)F)C3=O)cc(C)nc2c(OC)n1
- viability, T/C (compound 0.0316 µM): 89.5% and 92.6% and 79.2%
- viability, T/C (compound 0.1 µM): 93.5% and 80.2% and 93.8%
- viability, T/C (compound 0.316 µM): 96.5% and 104% and 95.6%
- viability, T/C (compound 1 µM): 120% and 102% and 96.1%
- viability, T/C (compound 10 µM): 109% and 99.8% and 115%
- IC50 (curve of compound): > 10000 nM

SMILES: COc1cccc(OCCCN)c1-c1cc(Nc2cnc(C#N)cn2)n[nH]1 + Nc1ccc(C#CCN(C(=O)Cc2ncc(C(F)(F)F)cc2C(F)(F)F)c2ccc(F)cc2)nn1
- IC50 (curve of first compound, second compound 0.0316 µM): 7.22 nM
- IC50 (curve of first compound, second compound 0.1 µM): 6.75 nM
- IC50 (curve of first compound, second compound 0.316 µM): 5.8 nM
- IC50 (curve of first compound, second compound 1 µM): 5.89 nM
- IC50 (curve of first compound, second compound 3.16 µM): 5.87 nM
- IC50 (curve of first compound, second compound 10 µM): 7.34 nM
- viability, T/C (second compound 0.0316 µM, first compound 0.00316 µM): 82.4%
- viability, T/C (second compound 0.0316 µM, first compound 0.01 µM): 37.4%
- viability, T/C (second compound 0.0316 µM, first compound 0.0316 µM): 33.4%
- viability, T/C (second compound 0.0316 µM, first compound 0.1 µM): 30.5%
- viability, T/C (second compound 0.0316 µM, first compound 0.316 µM): 35.9%
- viability, T/C (second compound 0.0316 µM, first compound 1 µM): 44.1%
- viability, T/C (second compound 0.1 µM, first compound 0.00316 µM): 62.6%
- viability, T/C (second compound 0.1 µM, first compound 0.01 µM): 45.9%
- viability, T/C (second compound 0.1 µM, first compound 0.0316 µM): 33.6%
- viability, T/C (second compound 0.1 µM, first compound 0.1 µM): 32.8%
- viability, T/C (second compound 0.1 µM, first compound 0.316 µM): 36.8%
- viability, T/C (second compound 0.1 µM, first compound 1 µM): 54.3%
- viability, T/C (second compound 0.316 µM, first compound 0.00316 µM): 60.3%
- viability, T/C (second compound 0.316 µM, first compound 0.01 µM): 40.4%
- viability, T/C (second compound 0.316 µM, first compound 0.0316 µM): 36.1%
- viability, T/C (second compound 0.316 µM, first compound 0.1 µM): 38.4%
- viability, T/C (second compound 0.316 µM, first compound 0.316 µM): 27.1%
- viability, T/C (second compound 0.316 µM, first compound 1 µM): 38%
- viability, T/C (second compound 1 µM, first compound 0.00316 µM): 68.9%
- viability, T/C (second compound 1 µM, first compound 0.01 µM): 33.9%
- viability, T/C (second compound 1 µM, first compound 0.0316 µM): 35%
- viability, T/C (second compound 1 µM, first compound 0.1 µM): 38.6%
- viability, T/C (second compound 1 µM, first compound 0.316 µM): 30.6%
- viability, T/C (second compound 1 µM, first compound 1 µM): 29.4%
- viability, T/C (second compound 3.16 µM, first compound 0.00316 µM): 59.2%
- viability, T/C (second compound 3.16 µM, first compound 0.01 µM): 42.8%
- viability, T/C (second compound 3.16 µM, first compound 0.0316 µM): 38.5%
- viability, T/C (second compound 3.16 µM, first compound 0.1 µM): 29%
- viability, T/C (second compound 3.16 µM, first compound 0.316 µM): 32.2%
- viability, T/C (second compound 3.16 µM, first compound 1 µM): 44.8%
- viability, T/C (second compound 10 µM, first compound 0.00316 µM): 76.1%
- viability, T/C (second compound 10 µM, first compound 0.01 µM): 40.1%
- viability, T/C (second compound 10 µM, first compound 0.0316 µM): 37.4%
- viability, T/C (second compound 10 µM, first compound 0.1 µM): 36.5%
- viability, T/C (second compound 10 µM, first compound 0.316 µM): 29%
- viability, T/C (second compound 10 µM, first compound 1 µM): 38.6%

SMILES: CC[C@@]1(O)C(=O)OCc2c1cc1n(c2=O)Cc2cc3c(CN(C)C)c(O)ccc3nc2-1
- viability, T/C (compound 0.000316 µM): 104% and 91% and 103%
- viability, T/C (compound 0.001 µM): 106% and 95.4% and 94.5%
- viability, T/C (compound 0.00316 µM): 88% and 77% and 98.9%
- viability, T/C (compound 0.01 µM): 70.4% and 68.2% and 68.5%
- viability, T/C (compound 0.0316 µM): 48.4% and 37.3% and 41.3%
- viability, T/C (compound 0.1 µM): 36% and 32.2% and 33.8%
- IC50 (curve of compound): 28.8 nM and 20 nM and 21.1 nM

SMILES: COc1cccc(OCCCN)c1-c1cc(Nc2cnc(C#N)cn2)n[nH]1
- viability, T/C (compound 0.00316 µM): 61.5% and 71.1% and 79.5%
- viability, T/C (compound 0.01 µM): 37.6% and 43.8% and 38%
- viability, T/C (compound 0.0316 µM): 38.3% and 35% and 28.3%
- viability, T/C (compound 0.1 µM): 38.7% and 31.6% and 31.1%
- viability, T/C (compound 0.316 µM): 34% and 37.7% and 24.6%
- viability, T/C (compound 1 µM): 35.8% and 33.7% and 48.9%
- IC50 (curve of compound): 5.56 nM and 7.54 nM and 7.07 nM
